From patent US20230312583A1, “1H-IMIDAZO [4,5-H] QUINAZOLINE COMPOUND AS NOVEL SELECTIVE FLT3 INHIBITORS” (SHENGKE PHARMACEUTICALS (JIANGSU) LTD., priority 2020, published 2023)

Key:
Assay type in all cases: biochemical
Conditions in all cases: 10 μM ATP
[1] = biological target: CDK2/cyclin E (Homo sapiens (Human), UniProt P24941); assay: Radiometric 33P-ATP kinase inhibition assay, CDK2/cyclin E
Protocol: (§1) Reactions were carried out in the presence of 10 μM ATP.
(§2) Procedures: • 1. Compounds were prepared in freshly prepared reaction buffers containing 20 mM HEPES (pH 7.5), 10 mM MgCl2, 1 mM EGTA, 0.01% Brij35, 0.02 mg/ml, BSA, 0.1 mM Na3VO4, 2 mM DTT, and 1% DMSO. • 2. […] Kinase such as 10 ng of recombinant CDK4/cyclin D1 (Life Technologies PV4204) diluted in a kinase buffer (20 mM Tris pH7.5, 10 mM MgCl2, 0.01% NP-40, 2 mM DTT), and incubated at room temperature for 30 minutes together with indicated concentration of inhibitors. • 4. Compounds in DMSO were added into the kinase reaction mixture utilizing acoustic technology (Echo550). • 5. 33P-ATP (specific activity 0.01 μCi/μl final) was added into the reaction mixture to initiate the reaction. • 6. The reaction mixture was incubated for 120 minutes at room temperature. • 7. […] Filters were extensively washed with 0.75% phosphoric acid. • 9. The radioactive phosphorylated substrate remaining on the filter paper was measured.
(§3) Kinase activity data were expressed as the percent remaining kinase activity in test samples compared to vehicle (dimethyl sulfoxide) reactions. IC50 values and curve fits were obtained using Prism4 Software (GraphPad).

[2] = biological target: C-Klt (Homo sapiens (Human), UniProt P10721); assay: Radiometric 33P-ATP kinase inhibition assay, C-Klt
Protocol: as §1, §2, §3

[3] = biological target: CDK4/cyclin D1 (Homo sapiens (Human), UniProt P11802); assay: Radiometric 33P-ATP kinase inhibition assay, CDK4/cyclin
Protocol: as §1, §2, §3

[4] = biological target: CDK1/cyclin B (Homo sapiens (Human), UniProt P06493); assay: Radiometric 33P-ATP kinase inhibition assay, CDK1/cyclin B
Protocol: as §1, §2, §3

[5] = biological target: CDK6/cyclin D1 (Homo sapiens (Human), UniProt Q00534); assay: Radiometric 33P-ATP kinase inhibition assay, CDK6/cyclin D1
Protocol: as §1, §2, §3

Chain of C-Klt (P10721 26-976): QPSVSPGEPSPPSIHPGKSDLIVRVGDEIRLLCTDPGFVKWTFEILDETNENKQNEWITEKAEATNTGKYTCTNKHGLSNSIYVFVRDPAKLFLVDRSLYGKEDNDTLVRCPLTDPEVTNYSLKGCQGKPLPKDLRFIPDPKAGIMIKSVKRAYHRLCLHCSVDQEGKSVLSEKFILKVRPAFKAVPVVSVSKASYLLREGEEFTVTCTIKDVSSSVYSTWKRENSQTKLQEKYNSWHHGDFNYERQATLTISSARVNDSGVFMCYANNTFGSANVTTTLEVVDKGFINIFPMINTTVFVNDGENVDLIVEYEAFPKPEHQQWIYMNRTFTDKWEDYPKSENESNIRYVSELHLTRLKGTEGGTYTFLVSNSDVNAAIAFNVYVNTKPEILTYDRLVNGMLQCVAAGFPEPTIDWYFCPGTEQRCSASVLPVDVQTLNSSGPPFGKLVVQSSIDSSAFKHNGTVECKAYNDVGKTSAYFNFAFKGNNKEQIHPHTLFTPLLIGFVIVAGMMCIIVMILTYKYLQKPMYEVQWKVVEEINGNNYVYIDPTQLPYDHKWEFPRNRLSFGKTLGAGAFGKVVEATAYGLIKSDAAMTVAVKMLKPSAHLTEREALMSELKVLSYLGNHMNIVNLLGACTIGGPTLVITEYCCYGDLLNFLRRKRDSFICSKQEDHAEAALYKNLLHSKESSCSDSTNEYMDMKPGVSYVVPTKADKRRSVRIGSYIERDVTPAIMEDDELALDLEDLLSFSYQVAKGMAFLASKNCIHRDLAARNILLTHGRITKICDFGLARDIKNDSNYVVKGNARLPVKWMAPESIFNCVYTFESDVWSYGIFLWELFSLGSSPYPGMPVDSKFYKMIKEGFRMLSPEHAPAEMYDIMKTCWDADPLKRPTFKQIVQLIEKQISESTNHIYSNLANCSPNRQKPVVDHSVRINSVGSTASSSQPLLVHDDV
Chain of CDK4/cyclin D1 (P11802 whole entry): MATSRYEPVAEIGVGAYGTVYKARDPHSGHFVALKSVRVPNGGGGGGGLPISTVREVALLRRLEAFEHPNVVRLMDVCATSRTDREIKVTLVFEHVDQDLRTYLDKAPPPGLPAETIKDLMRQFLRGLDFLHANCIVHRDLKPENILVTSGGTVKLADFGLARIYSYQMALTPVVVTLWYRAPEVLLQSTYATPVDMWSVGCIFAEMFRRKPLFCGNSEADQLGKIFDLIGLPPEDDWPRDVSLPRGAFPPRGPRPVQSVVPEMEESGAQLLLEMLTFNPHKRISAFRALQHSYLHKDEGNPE
Chain of CDK4/cyclin D1 (P24385 whole entry partner): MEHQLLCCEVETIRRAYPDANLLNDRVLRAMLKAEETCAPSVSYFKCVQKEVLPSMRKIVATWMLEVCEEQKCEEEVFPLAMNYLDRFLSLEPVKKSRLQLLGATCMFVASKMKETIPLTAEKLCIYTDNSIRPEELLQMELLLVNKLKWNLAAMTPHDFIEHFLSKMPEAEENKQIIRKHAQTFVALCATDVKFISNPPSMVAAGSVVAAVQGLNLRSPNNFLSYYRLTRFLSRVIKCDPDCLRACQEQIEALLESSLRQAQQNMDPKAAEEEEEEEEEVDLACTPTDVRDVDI
Chain of CDK1/cyclin B (P06493 whole entry, species assumed): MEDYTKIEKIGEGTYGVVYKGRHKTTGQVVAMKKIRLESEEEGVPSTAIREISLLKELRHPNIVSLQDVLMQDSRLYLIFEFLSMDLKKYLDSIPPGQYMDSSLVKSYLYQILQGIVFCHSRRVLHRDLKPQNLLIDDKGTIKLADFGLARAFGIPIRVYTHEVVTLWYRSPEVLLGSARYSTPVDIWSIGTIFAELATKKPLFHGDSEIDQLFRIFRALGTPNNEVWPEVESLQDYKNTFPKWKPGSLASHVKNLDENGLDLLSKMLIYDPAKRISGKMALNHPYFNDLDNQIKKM
Chain of CDK1/cyclin B (P14635 whole entry partner, species assumed): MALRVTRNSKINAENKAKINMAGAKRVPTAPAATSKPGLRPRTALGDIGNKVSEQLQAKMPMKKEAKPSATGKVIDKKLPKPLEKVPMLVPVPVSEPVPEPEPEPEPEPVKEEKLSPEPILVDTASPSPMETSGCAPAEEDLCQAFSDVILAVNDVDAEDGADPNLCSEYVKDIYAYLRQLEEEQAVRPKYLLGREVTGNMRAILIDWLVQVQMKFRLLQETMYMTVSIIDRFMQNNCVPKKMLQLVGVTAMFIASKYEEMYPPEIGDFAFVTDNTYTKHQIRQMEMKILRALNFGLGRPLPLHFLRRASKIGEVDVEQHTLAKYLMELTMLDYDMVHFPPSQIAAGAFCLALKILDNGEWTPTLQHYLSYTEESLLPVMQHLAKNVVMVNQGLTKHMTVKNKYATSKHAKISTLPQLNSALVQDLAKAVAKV
Chain of CDK6/cyclin D1 (Q00534 whole entry, species assumed): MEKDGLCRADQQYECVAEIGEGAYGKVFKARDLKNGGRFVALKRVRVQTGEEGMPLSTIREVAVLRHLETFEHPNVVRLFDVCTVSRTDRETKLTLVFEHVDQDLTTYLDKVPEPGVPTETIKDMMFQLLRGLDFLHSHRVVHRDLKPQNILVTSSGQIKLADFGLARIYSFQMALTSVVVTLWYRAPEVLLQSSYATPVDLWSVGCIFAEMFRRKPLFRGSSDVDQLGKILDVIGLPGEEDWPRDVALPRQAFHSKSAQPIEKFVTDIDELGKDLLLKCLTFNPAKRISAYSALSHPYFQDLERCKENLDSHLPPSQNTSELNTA
Chain of CDK6/cyclin D1 (P24385 whole entry partner, species assumed): as the sequence (P24385 whole entry partner) above

| SMILES | IC50 [1] [µM] | IC50 [2] [µM] | IC50 [3] [µM] | IC50 [4] [µM] | IC50 [5] [µM] |
| --- | --- | --- | --- | --- | --- |
| CC(C)n1cnc2ccc3cnc(Nc4cc(OCC5CC5)c(N5CCNCC5)cn4)nc3c21 [Compound I-10] | > 0.5 | 0.111 | 0.292 | 0.451 | – |
| COc1cc(Nc2ncc3cc(C)c4ncn(C(C)C)c4c3n2)ccc1N1CCOCC1 [II-1, 1-isopropyl-N-(3-methoxy-4-morpholinophenyl)-4-methyl-1H-imidazo[4,5-h]quinazolin-8-amine] | – | 0.0751 | – | – | – |
| COc1cc(Nc2ncc3ccc4nc(C)n(C(C)C)c4c3n2)ncc1N1CCOCC1 [VI-1, 1-isopropyl-N-(4-methoxy-5-morpholinopyridin-2-yl)-2-methyl-1H-imidazo[4,5-h]quinazolin-8-amine] | 0.0891 | 0.046 | 0.245 | 0.397 | – |
| CC(C)n1cnc2ccc3cnc(Nc4cc(OCCF)c(N5CC6CC(C5)N6)cn4)nc3c21 [Compound I-9] | 0.0911 | 0.015 | 0.0395 | – | 0.0225 |
| COc1cc(Nc2ncc3ccc4ncn(C(C)C)c4c3n2)ncc1N1C2CCC1CNC2 [Compound I-11] | > 0.5 | 0.0298 | 0.0983 | – | – |
| CCOc1cc(Nc2ncc3ccc4ncn(CC)c4c3n2)ncc1N1CCN(CC)CC1 [Compound V-1, N-(4-ethoxy-5-(4-ethylpiperazin-1-yl)pyridin-2-yl)-1-ethyl-1H-imidazo[4,5-h]quinazolin-8-amine] | – | 0.0213 | 0.221 | – | – |
| CC(C)Oc1cc(Nc2ncc3ccc4ncn(C)c4c3n2)ncc1N1CCNCC1 [IV-1, N-(4-isopropoxy-5-(piperazin-1-yl)pyridin-2-yl)-1-methyl-1H-imidazo[4,5-h]quinazolin-8-amine] | – | 0.137 | – | – | – |
| CC(C)n1cnc2ccc3cnc(Nc4cc(Oc5ccccc5)c(N5CCNCC5)cn4)nc3c21 [Compound I-14] | 0.436 | 0.0709 | 0.0461 | – | – |

Now from value to compound, other results behind:

| IC50 [1] [µM] | IC50 [2] [µM] | IC50 [3] [µM] | SMILES | IC50 [4] [µM] | IC50 [5] [µM] |
| --- | --- | --- | --- | --- | --- |
| 0.301 | 0.015 | 0.066 | COc1cc(Nc2ncc3ccc4ncn(C(C)C)c4c3n2)ncc1N1CC2CCC1CN2 (stereo not shown) [Compound I-12] | – | – |
| > 0.5 | 0.0891 | > 0.5 | CCOc1cc(Nc2ncc3ccc4ncn(C(C)C)c4c3n2)ncc1N1CCOCC1 [Compound I-8] | – | – |
| 0.0695 | 0.0166 | 0.0529 | COc1cc(Nc2ncc3ccc4ncn(C(C)C)c4c3n2)ncc1N1CC2(CNC2)C1 [Compound I-4] | – | – |
| > 0.5 | 0.0947 | 0.245 | CNC1CN(c2cnc(Nc3ncc4ccc5ncn(C(C)C)c5c4n3)cc2OC)C1 [Compound I-6] | – | – |
| > 0.5 | 0.0315 | 0.0991 | CCOc1cc(Nc2ncc3ccc4ncn(C(C)C)c4c3n2)ncc1N1CCN(C)CC1 [Compound I-7] | – | – |
| 0.189 | 0.0321 | 0.061 | COc1cc(Nc2ncc3ccc4ncn(C(C)C)c4c3n2)ncc1N1CCN(C)CC1 [Compound I-1] | – | – |
| > 0.5 | 0.118 | 0.267 | COc1cc(Nc2ncc3ccc4ncn(C(C)C)c4c3n2)ncc1NCC1COC(=O)N1C (stereo not shown) [Compound I-15] | – | – |
| 0.162 | – | 0.0668 | CCN1CCN(c2cnc(Nc3ncc4ccc5ncn(C(C)C)c5c4n3)cc2OC)CC1 [Compound I-2, N-(5-(4-ethylpiperazin-1-yl)-4-methoxypyridin-2-yl)-1-isopropyl-1H-imidazo[4,5-h]quinazolin-8-amine] | – | – |
| 0.0469 | 0.0606 | 0.186 | COc1cc(Nc2ncc3ccc4ncn(C(C)C)c4c3n2)ncc1N1CC2(COC2)C1 [Compound I-3] | – | – |
| 0.483 | 0.0256 | 0.095 | COc1cc(Nc2ncc3ccc4ncn(C(C)C)c4c3n2)ncc1N1CCNC(C)(C)C1 [Compound I-5] | – | – |
| – | – | 0.109 | CC#CCOc1cc(Nc2ncc3ccc4ncn(C(C)C)c4c3n2)ncc1N1CCNCC1 [Compound I-13] | – | – |
